Measured values: US12343326B2, “Psychoactive medicines and their use for treating psychiatric and neurological conditions and disorders” (Transcend Therapeutics, Inc., priority 2021, dated 2025)

Legend:
Experiment in all cases: β-arrestin based GPCR screen (PathHunter / GPCRmax), antagonist mode
168 GPCRs [1] = target: 168 GPCRs (Homo sapiens, UniProt P21917)
168 GPCRs [2] = target: 168 GPCRs (Homo sapiens, UniProt P37288); settings: AVPR1A, Antagonist
168 GPCRs [3] = target: 168 GPCRs (Homo sapiens, UniProt P32302)
168 GPCRs [4] = target: 168 GPCRs (Homo sapiens, UniProt P28222); settings: HTR1B
168 GPCRs [5] = target: 168 GPCRs (Homo sapiens, UniProt Q9HC97)
168 GPCRs [6] = target: 168 GPCRs (Homo sapiens, UniProt O43613)
168 GPCRs [7] = target: 168 GPCRs (Homo sapiens, UniProt P43115)
168 GPCRs [8] = target: 168 GPCRs (Homo sapiens, UniProt P34972)
168 GPCRs [9] = target: 168 GPCRs (Homo sapiens, UniProt P25116); settings: F2R; Antagonist; 1 uM
168 GPCRs [10] = target: 168 GPCRs (Homo sapiens, UniProt P30518); settings: AVPR2, Antagonist
168 GPCRs [11] = target: 168 GPCRs (Homo sapiens, UniProt P08913); settings: ADRA2A, Antagonist
168 GPCRs [12] = target: T1, 168 GPCRs (Homo sapiens, UniProt P0DMS8); settings: ADORA3, Antagonist
T1 sequence (P0DMS8 1-318): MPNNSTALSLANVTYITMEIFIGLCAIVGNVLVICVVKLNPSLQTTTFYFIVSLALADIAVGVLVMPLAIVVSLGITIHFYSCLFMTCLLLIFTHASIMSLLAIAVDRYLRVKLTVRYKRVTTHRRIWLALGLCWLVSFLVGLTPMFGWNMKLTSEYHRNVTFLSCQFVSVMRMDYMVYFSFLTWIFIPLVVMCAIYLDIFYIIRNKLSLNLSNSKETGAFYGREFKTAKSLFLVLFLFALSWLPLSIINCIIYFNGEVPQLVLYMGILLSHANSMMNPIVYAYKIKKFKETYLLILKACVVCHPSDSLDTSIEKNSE

168 GPCRs [13] = target: T2, 168 GPCRs (Homo sapiens, UniProt Q96RI0)
T2 sequence (Q96RI0 18-385): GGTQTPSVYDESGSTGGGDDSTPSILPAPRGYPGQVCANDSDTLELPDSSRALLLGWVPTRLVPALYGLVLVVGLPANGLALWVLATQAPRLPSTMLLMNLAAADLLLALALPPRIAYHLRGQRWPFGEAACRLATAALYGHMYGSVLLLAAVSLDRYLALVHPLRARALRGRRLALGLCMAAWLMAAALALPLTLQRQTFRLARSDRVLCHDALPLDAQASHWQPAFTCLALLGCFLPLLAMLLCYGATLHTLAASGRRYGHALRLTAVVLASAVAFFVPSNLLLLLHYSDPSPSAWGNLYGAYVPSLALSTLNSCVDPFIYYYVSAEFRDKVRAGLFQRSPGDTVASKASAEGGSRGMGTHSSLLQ

168 GPCRs [14] = target: 168 GPCRs (Homo sapiens, UniProt P21462)
168 GPCRs [15] = target: 168 GPCRs (Homo sapiens, UniProt P25090)
168 GPCRs [16] = target: 168 GPCRs (Homo sapiens, UniProt P61073)
168 GPCRs [17] = target: 168 GPCRs (Homo sapiens, UniProt O43603)
168 GPCRs [18] = target: 168 GPCRs (Homo sapiens, UniProt P47898); settings: HTR5A
Sequence of 168 GPCRs (Homo sapiens, UniProt P47898) (P47898 whole entry): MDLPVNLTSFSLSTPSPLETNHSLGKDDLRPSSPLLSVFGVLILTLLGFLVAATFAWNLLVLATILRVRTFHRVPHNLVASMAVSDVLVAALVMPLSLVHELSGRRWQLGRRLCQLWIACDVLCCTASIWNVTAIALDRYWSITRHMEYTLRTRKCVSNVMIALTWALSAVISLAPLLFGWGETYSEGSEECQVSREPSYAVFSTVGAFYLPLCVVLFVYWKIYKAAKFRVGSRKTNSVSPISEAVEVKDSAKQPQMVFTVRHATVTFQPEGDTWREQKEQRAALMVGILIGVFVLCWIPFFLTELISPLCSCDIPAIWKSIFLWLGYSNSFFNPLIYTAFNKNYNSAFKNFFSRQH

Sequence of 168 GPCRs (Homo sapiens, UniProt P21462) (P21462 whole entry): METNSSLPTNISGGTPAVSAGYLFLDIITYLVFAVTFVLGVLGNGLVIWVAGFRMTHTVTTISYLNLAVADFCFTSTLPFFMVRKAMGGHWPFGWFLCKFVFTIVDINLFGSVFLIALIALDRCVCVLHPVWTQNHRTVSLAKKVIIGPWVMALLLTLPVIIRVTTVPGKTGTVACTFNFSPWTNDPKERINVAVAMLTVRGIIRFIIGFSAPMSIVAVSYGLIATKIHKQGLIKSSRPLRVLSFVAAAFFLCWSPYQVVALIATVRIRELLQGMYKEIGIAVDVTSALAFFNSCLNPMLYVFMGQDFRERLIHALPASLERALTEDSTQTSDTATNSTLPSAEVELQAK
Sequence of 168 GPCRs (Homo sapiens, UniProt P25090) (P25090 whole entry): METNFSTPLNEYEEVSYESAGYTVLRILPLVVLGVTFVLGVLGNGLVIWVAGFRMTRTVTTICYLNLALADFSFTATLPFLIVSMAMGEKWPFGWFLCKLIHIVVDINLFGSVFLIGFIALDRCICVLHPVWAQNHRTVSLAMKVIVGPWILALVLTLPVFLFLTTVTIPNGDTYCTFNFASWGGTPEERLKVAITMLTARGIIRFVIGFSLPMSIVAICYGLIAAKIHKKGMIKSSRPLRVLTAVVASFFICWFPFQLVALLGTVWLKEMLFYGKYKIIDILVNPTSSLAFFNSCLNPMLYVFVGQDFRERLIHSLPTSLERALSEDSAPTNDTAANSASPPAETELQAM
Sequence of 168 GPCRs (Homo sapiens, UniProt P37288) (P37288 whole entry): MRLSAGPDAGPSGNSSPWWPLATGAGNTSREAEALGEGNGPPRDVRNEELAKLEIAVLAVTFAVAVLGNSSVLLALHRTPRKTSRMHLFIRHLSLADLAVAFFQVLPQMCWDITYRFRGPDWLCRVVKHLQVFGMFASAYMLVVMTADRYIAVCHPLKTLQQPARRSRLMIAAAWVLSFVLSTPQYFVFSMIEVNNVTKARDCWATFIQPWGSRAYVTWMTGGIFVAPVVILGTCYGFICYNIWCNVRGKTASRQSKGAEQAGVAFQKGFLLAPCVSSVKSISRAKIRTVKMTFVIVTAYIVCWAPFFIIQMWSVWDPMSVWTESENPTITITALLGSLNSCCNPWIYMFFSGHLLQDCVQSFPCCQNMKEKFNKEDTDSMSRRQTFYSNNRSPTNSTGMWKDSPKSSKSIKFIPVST
Sequence of 168 GPCRs (Homo sapiens, UniProt P30518) (P30518 whole entry): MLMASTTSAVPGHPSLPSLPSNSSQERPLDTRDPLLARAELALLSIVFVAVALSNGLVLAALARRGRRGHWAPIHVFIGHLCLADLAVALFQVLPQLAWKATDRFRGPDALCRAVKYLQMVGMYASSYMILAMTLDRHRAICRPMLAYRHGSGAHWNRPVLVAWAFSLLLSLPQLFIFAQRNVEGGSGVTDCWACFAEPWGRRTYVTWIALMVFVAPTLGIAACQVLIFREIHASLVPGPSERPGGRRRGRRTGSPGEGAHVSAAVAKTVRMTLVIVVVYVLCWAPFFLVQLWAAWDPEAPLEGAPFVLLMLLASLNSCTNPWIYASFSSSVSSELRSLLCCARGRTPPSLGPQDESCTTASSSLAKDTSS
Sequence of 168 GPCRs (Homo sapiens, UniProt P43115) (P43115 whole entry): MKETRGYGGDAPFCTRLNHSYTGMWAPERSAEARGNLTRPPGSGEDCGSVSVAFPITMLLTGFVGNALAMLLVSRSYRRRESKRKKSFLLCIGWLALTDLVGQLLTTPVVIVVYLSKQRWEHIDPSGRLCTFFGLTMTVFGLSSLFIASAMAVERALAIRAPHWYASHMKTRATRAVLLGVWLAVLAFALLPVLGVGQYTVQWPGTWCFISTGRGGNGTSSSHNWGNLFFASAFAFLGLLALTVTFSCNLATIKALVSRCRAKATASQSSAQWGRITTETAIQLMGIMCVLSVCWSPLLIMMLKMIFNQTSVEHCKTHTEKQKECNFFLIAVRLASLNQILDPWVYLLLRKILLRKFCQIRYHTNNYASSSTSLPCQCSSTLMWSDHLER
Sequence of 168 GPCRs (Homo sapiens, UniProt P21917) (P21917 whole entry): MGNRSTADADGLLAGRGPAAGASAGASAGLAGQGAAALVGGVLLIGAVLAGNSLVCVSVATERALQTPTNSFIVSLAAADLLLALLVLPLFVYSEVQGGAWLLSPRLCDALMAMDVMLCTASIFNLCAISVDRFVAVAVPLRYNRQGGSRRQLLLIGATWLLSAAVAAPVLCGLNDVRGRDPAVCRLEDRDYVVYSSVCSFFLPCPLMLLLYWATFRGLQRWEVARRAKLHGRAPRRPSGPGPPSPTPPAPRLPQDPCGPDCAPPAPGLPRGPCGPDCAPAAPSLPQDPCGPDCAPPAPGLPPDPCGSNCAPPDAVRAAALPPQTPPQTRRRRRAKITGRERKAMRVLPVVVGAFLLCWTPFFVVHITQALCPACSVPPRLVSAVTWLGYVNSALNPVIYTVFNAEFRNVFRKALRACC
Sequence of 168 GPCRs (Homo sapiens, UniProt P28222) (P28222 whole entry): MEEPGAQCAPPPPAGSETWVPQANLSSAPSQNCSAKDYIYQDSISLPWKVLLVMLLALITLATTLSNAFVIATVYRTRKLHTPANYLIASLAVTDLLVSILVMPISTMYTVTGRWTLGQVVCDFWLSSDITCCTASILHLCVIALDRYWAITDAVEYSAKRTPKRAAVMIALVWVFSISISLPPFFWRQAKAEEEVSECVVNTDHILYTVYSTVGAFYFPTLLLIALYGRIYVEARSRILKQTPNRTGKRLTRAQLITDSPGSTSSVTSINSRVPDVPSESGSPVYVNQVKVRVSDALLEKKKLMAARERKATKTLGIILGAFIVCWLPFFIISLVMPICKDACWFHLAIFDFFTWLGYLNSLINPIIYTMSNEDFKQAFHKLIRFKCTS
Sequence of 168 GPCRs (Homo sapiens, UniProt P08913) (P08913 whole entry): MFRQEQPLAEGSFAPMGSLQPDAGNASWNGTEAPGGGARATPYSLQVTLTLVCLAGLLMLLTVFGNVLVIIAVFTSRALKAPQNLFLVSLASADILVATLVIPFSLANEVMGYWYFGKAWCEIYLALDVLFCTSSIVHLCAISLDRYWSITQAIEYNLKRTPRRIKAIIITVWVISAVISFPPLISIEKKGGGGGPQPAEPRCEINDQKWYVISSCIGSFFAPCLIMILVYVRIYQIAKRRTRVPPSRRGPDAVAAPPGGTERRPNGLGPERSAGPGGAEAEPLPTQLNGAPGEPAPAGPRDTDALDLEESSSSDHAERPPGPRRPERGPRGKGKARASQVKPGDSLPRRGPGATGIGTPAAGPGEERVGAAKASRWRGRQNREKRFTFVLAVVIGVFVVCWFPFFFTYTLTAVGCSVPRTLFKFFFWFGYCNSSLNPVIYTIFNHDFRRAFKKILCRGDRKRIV
Sequence of 168 GPCRs (Homo sapiens, UniProt P61073) (P61073 whole entry): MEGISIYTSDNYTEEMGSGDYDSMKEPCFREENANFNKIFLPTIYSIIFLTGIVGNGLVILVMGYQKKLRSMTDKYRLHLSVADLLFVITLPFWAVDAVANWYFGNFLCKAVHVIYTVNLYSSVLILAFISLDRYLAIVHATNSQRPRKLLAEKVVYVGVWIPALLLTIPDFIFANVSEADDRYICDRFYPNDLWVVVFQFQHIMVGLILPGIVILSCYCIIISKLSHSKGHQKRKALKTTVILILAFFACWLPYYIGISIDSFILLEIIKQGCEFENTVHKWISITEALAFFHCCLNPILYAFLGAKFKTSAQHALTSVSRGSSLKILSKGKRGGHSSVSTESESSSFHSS
Sequence of 168 GPCRs (Homo sapiens, UniProt O43603) (O43603 whole entry): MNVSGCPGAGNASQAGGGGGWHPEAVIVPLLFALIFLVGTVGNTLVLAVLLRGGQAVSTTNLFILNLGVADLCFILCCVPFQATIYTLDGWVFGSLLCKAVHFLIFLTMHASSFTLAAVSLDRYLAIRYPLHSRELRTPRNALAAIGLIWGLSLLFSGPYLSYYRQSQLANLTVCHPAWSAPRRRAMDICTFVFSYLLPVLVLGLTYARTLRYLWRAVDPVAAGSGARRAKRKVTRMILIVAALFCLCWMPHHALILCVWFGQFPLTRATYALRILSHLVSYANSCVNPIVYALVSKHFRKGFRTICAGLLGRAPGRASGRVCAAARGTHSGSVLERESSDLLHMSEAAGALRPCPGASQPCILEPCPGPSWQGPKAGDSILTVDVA
Sequence of 168 GPCRs (Homo sapiens, UniProt P34972) (P34972 whole entry): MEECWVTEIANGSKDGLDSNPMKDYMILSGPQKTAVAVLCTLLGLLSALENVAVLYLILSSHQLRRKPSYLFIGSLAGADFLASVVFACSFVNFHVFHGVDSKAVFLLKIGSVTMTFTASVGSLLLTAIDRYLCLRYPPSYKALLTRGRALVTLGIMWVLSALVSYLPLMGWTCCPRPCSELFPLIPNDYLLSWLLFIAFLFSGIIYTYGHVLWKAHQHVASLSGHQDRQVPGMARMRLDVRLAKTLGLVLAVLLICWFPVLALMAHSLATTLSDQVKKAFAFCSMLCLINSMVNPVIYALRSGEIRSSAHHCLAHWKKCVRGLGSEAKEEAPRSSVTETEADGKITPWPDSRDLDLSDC
Sequence of 168 GPCRs (Homo sapiens, UniProt Q9HC97) (Q9HC97 whole entry): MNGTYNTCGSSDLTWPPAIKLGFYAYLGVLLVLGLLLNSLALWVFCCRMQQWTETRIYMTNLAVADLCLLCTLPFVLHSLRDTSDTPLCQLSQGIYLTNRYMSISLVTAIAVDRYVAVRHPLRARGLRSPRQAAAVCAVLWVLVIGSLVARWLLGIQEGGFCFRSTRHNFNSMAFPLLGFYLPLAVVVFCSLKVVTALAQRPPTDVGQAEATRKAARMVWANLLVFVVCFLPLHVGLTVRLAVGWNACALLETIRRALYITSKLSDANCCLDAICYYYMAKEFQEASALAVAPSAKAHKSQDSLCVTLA

`CNC(C)C(=O)c1ccc2c(c1)OCO2` (centres unmarked) [methylone, 3,4-methylenedioxy-N-methylcathinone] showed an activity at 10 µM (168 GPCRs [1]; DRD4, Antagonist mode, 10 uM) of 12.2%, an activity at 1 µM (168 GPCRs [1]; DRD4, Antagonist, 1 uM) of 8.4% and an activity at 1 µM (168 GPCRs [2]; 1 uM) of -3%. The activity at 10 µM (168 GPCRs [2]; 10 uM) was 2.8%, the activity at 10 µM (168 GPCRs [3]; CXCR5, Antagonist mode, 10 uM) was -15.1% and the activity at 1 µM (168 GPCRs [3]; CXCR5, Antagonist, 1 uM) was -4.3%. It also gave an activity at 10 µM (168 GPCRs [4]; Antagonist mode, 10 uM) of -6.2%, an activity at 1 µM (168 GPCRs [4]; Antagonist, 1 uM) of -9.5% and an activity at 10 µM (168 GPCRs [5]; GPR35, Antagonist mode, 10 uM) of 7.3%. The activity at 1 µM (168 GPCRs [5]; GPR35, Antagonist, 1 uM) was 13.2%, the activity at 10 µM (168 GPCRs [6]; HCRTR1, Antagonist mode, 10 uM) was 1.2% and the activity at 1 µM (168 GPCRs [6]; HCRTR1, Antagonist, 1 uM) was 2.3%. It also gave an activity at 10 µM (168 GPCRs [7]; PTGER3, Antagonist mode, 10 uM) of 5.7%, an activity at 1 µM (168 GPCRs [7]; PTGER3, Antagonist, 1 uM) of -6.2% and an activity at 10 µM (168 GPCRs [8]; CNR2, Antagonist mode, 10 uM) of -3.2%. The activity at 1 µM (168 GPCRs [8]; CNR2, Antagonist, 1 uM) was 3.6%, the activity at 1 µM (168 GPCRs [9]) was -11.6% and the activity at 1 µM (168 GPCRs [10]; 1 uM) was -2.7%. It also gave an activity at 10 µM (168 GPCRs [10]; 10 uM) of -14.8%, an activity at 1 µM (168 GPCRs [11]; 1 uM) of -4.6% and an activity at 10 µM (168 GPCRs [11]; 10 uM) of 1.9%. It also gave an activity at 1 µM (168 GPCRs [12]; 1 uM) of 11.3%, an activity at 10 µM (168 GPCRs [12]; 10 uM) of 7.7% and an activity at 10 µM (168 GPCRs [13]; F2RL3, Antagonist mode, 10 uM) of -6.9%. The activity at 1 µM (168 GPCRs [13]; F2RL3, Antagonist, 1 uM) was -11.3%, the activity at 10 µM (168 GPCRs [14]; FPR1, Antagonist mode, 10 uM) was -11.4% and the activity at 1 µM (168 GPCRs [14]; FPR1, Antagonist, 1 uM) was -4.9%. For the same molecule, the activity at 10 µM (168 GPCRs [15]; FPRL1, Antagonist mode, 10 uM) was 3.9%, the activity at 1 µM (168 GPCRs [15]; FPRL1, Antagonist, 1 uM) was 12.3% and the activity at 10 µM (168 GPCRs [16]; CXCR4, Antagonist mode, 10 uM) was -4.2%. It also gave an activity at 1 µM (168 GPCRs [16]; CXCR4, Antagonist, 1 uM) of 10.7%, an activity at 10 µM (168 GPCRs [17]; GALR2, Antagonist mode, 10 uM) of 1.5% and an activity at 1 µM (168 GPCRs [17]; GALR2, Antagonist, 1 uM) of 7%. The activity at 10 µM (168 GPCRs [18]; Antagonist mode, 10 uM) was 1.6% and the activity at 1 µM (168 GPCRs [18]; Antagonist, 1 uM) was 9.8%.
